# Data from ChEMBL document CHEMBL3525916, “Investigation of figopitant and its metabolites in rat tissue by combining whole-body autoradiography with liquid extraction surface analysis mass spectrometry” (Drug Metab Dispos, 2012).
# Key:
# Set-up in all cases: dose 5 mg/kg, route intravenous
# Details in all cases: in vivo
# [1] = Drug uptake in albino Wistar Hannover rat testis at 5 mg/kg, iv by LESA-MS analysis; assay type: ADME, organism-based
# Rattus norvegicus [2] = test: Biodistribution in albino Wistar Hannover rat salivary gland at 5 mg/kg, iv after 5 mins by autoradiography analysis; assay type: ADME, organism-based
# Thymus [3] = test: Biodistribution in albino Wistar Hannover rat thymus at 5 mg/kg, iv after 4 hrs by autoradiography analysis; assay type: ADME, organism-based
# [4] = Retention time in albino Wistar Hannover rat at 5 mg/kg, iv; assay type: ADME, organism-based
# [5] = Drug uptake in albino Wistar Hannover rat brown fat at 5 mg/kg, iv by LESA-MS analysis; assay type: ADME, organism-based, Brown adipose tissue
# Liver [6] = test: Half life in albino Wistar Hannover rat liver at 5 mg/kg, iv by autoradiography analysis; assay type: ADME, organism-based
# Rattus norvegicus [7] = test: Biodistribution in albino Wistar Hannover rat bone marrow at 5 mg/kg, iv after 24 hrs by autoradiography analysis; assay type: ADME, organism-based
# Liver [8] = test: Biodistribution in albino Wistar Hannover rat liver at 5 mg/kg, iv after 4 hrs by autoradiography analysis; assay type: ADME, organism-based
# [9] = Half life in albino Wistar Hannover rat testis at 5 mg/kg, iv by autoradiography analysis; assay type: ADME, organism-based
# Rattus norvegicus [10] = test: Biodistribution in albino Wistar Hannover rat adipose tissue at 5 mg/kg, iv after 24 hrs by autoradiography analysis; assay type: ADME, organism-based
# Rattus norvegicus [11] = test: Biodistribution in albino Wistar Hannover rat epididymis at 5 mg/kg, iv after 24 hrs by autoradiography analysis; assay type: ADME, organism-based
# Rattus norvegicus [12] = test: Biodistribution in albino Wistar Hannover rat muscle cranial at 5 mg/kg, iv after 24 hrs by autoradiography analysis; assay type: ADME, organism-based, Muscle tissue
# Thymus [13] = test: Biodistribution in albino Wistar Hannover rat thymus at 5 mg/kg, iv after 5 mins by autoradiography analysis; assay type: ADME, organism-based
# Liver [14] = test: Biodistribution in albino Wistar Hannover rat liver at 5 mg/kg, iv after 24 hrs by autoradiography analysis; assay type: ADME, organism-based
# Zone of skin [15] = test: Biodistribution in albino Wistar Hannover rat skin at 5 mg/kg, iv after 24 hrs by autoradiography analysis; assay type: ADME, organism-based
# Rattus norvegicus [16] = test: Biodistribution in albino Wistar Hannover rat bone marrow at 5 mg/kg, iv after 5 mins by autoradiography analysis; assay type: ADME, organism-based
# Plasma [17] = test: Biodistribution in albino Wistar Hannover rat plasma at 5 mg/kg, iv after 5 mins by liquid scintillation counting; assay type: ADME, organism-based
# Rattus norvegicus [18] = test: Biodistribution in albino Wistar Hannover rat renal cortex at 5 mg/kg, iv after 4 hrs by autoradiography analysis; assay type: ADME, organism-based
# Rattus norvegicus [19] = test: Biodistribution in albino Wistar Hannover rat testis at 5 mg/kg, iv after 5 mins by autoradiography analysis; assay type: ADME, organism-based
# Zone of skin [20] = test: Biodistribution in albino Wistar Hannover rat skin at 5 mg/kg, iv after 5 mins by autoradiography analysis; assay type: ADME, organism-based
# Rattus norvegicus [21] = test: Biodistribution in albino Wistar Hannover rat salivary gland at 5 mg/kg, iv after 24 hrs by autoradiography analysis; assay type: ADME, organism-based
# Pancreas [22] = test: Drug uptake in albino Wistar Hannover rat pancreas at 5 mg/kg, iv by LESA-MS analysis; assay type: ADME, organism-based
# Rattus norvegicus [23] = test: Biodistribution in albino Wistar Hannover rat muscle caudal at 5 mg/kg, iv after 5 mins by autoradiography analysis; assay type: ADME, organism-based, Muscle tissue
# Lung [24] = test: Drug uptake in albino Wistar Hannover rat lung at 5 mg/kg, iv by LESA-MS analysis; assay type: ADME, organism-based
# Rattus norvegicus [25] = test: Biodistribution in albino Wistar Hannover rat muscle caudal at 5 mg/kg, iv after 4 hrs by autoradiography analysis; assay type: ADME, organism-based, Muscle tissue
# Rattus norvegicus [26] = test: Biodistribution in albino Wistar Hannover rat renal cortex at 5 mg/kg, iv after 24 hrs by autoradiography analysis; assay type: ADME, organism-based
# Muscle tissue = test: Drug uptake in albino Wistar Hannover rat muscle at 5 mg/kg, iv by LESA-MS analysis; assay type: ADME, organism-based
# Plasma [27] = test: Half life in albino Wistar Hannover rat plasma at 5 mg/kg, iv by liquid scintillation counting; assay type: ADME, organism-based
# Pituitary gland [28] = test: Drug uptake in albino Wistar Hannover rat pituitary at 5 mg/kg, iv by LESA-MS analysis; assay type: ADME, organism-based
# Rattus norvegicus [29] = test: Biodistribution in albino Wistar Hannover rat tongue at 5 mg/kg, iv after 24 hrs by autoradiography analysis; assay type: ADME, organism-based
# Rattus norvegicus [30] = test: Biodistribution in albino Wistar Hannover rat adipose tissue at 5 mg/kg, iv after 5 mins by autoradiography analysis; assay type: ADME, organism-based
# Rattus norvegicus [31] = test: Biodistribution in albino Wistar Hannover rat muscle caudal at 5 mg/kg, iv after 24 hrs by autoradiography analysis; assay type: ADME, organism-based, Muscle tissue
# Blood = test: Half life in albino Wistar Hannover rat whole blood at 5 mg/kg, iv by liquid scintillation counting; assay type: ADME, organism-based
# [32] = Half life in albino Wistar Hannover rat adipose tissue at 5 mg/kg, iv by autoradiography analysis; assay type: ADME, organism-based
# [33] = Drug uptake in albino Wistar Hannover rat white fat at 5 mg/kg, iv by LESA-MS analysis; assay type: ADME, organism-based, White adipose tissue
# Rattus norvegicus [34] = test: Biodistribution in albino Wistar Hannover rat epididymis at 5 mg/kg, iv after 4 hrs by autoradiography analysis; assay type: ADME, organism-based
# Pituitary gland [35] = test: Biodistribution in albino Wistar Hannover rat pituitary at 5 mg/kg, iv after 24 hrs by autoradiography analysis; assay type: ADME, organism-based
# Brain = test: Drug uptake in albino Wistar Hannover rat brain at 5 mg/kg, iv by LESA-MS analysis; assay type: ADME, organism-based
# Harderian gland = test: Biodistribution in albino Wistar Hannover rat harderian gland at 5 mg/kg, iv after 5 mins by autoradiography analysis; assay type: ADME, organism-based
# Spleen [36] = test: Biodistribution in albino Wistar Hannover rat spleen at 5 mg/kg, iv after 4 hrs by autoradiography analysis; assay type: ADME, organism-based
# [37] = Half life in albino Wistar Hannover rat muscle caudal at 5 mg/kg, iv by autoradiography analysis; assay type: ADME, organism-based, Muscle tissue
# Pancreas [38] = test: Biodistribution in albino Wistar Hannover rat pancreas at 5 mg/kg, iv after 24 hrs by autoradiography analysis; assay type: ADME, organism-based
# Rattus norvegicus [39] = test: Biodistribution in albino Wistar Hannover rat adrenal cortex at 5 mg/kg, iv after 24 hrs by autoradiography analysis; assay type: ADME, organism-based
# Spleen [40] = test: Drug uptake in albino Wistar Hannover rat spleen at 5 mg/kg, iv by LESA-MS analysis; assay type: ADME, organism-based
# [41] = Drug uptake in albino Wistar Hannover rat myocardium at 5 mg/kg, iv by LESA-MS analysis; assay type: ADME, organism-based
# Lung [42] = test: Half life in albino Wistar Hannover rat lung at 5 mg/kg, iv by autoradiography analysis; assay type: ADME, organism-based
# Thymus [43] = test: Biodistribution in albino Wistar Hannover rat thymus at 5 mg/kg, iv after 24 hrs by autoradiography analysis; assay type: ADME, organism-based
# Pituitary gland [44] = test: Biodistribution in albino Wistar Hannover rat pituitary at 5 mg/kg, iv after 5 mins by autoradiography analysis; assay type: ADME, organism-based
# Rattus norvegicus [45] = test: Biodistribution in albino Wistar Hannover rat muscle cranial at 5 mg/kg, iv after 5 mins by autoradiography analysis; assay type: ADME, organism-based, Muscle tissue
# Pancreas [46] = test: Biodistribution in albino Wistar Hannover rat pancreas at 5 mg/kg, iv after 4 hrs by autoradiography analysis; assay type: ADME, organism-based
# Rattus norvegicus [47] = test: Biodistribution in albino Wistar Hannover rat adipose tissue at 5 mg/kg, iv after 4 hrs by autoradiography analysis; assay type: ADME, organism-based
# Plasma [48] = test: Biodistribution in albino Wistar Hannover rat plasma at 5 mg/kg, iv after 4 hrs by liquid scintillation counting; assay type: ADME, organism-based
# Rattus norvegicus [49] = test: Biodistribution in albino Wistar Hannover rat salivary gland at 5 mg/kg, iv after 4 hrs by autoradiography analysis; assay type: ADME, organism-based
smiles,measurement,setting,value
CN(CCc1cc(C(F)(F)F)cc(C(F)(F)F)c1)C(=O)[C@H](c1ccccc1)N1CCN(CC2CC2)CC1.Cl.O,Drug uptake,[1],79.5%
same,Drug uptake,Rattus norvegicus [2],10729 ngequiv/g
same,Drug uptake,Thymus [3],3372 ngequiv/g
same,Retention time,[4],0.358 h
same,Drug uptake,[5],47.1%
same,t1/2,Liver [6],31.2 h
same,Drug uptake,Rattus norvegicus [7],1156 ngequiv/g
same,Drug uptake,Liver [8],13851 ngequiv/g
same,t1/2,[9],95.6 h
same,Drug uptake,Rattus norvegicus [10],113 ngequiv/g
same,Drug uptake,Rattus norvegicus [11],1043 ngequiv/g
same,Drug uptake,Rattus norvegicus [12],671 ngequiv/g
same,Drug uptake,Thymus [13],3243 ngequiv/g
same,Drug uptake,Liver [14],4793 ngequiv/g
same,Drug uptake,Zone of skin [15],606 ngequiv/g
same,Drug uptake,Rattus norvegicus [16],4445 ngequiv/g
same,Drug uptake,Plasma [17],483 ngequiv/g
same,Drug uptake,Rattus norvegicus [18],8020 ngequiv/g
same,Drug uptake,Rattus norvegicus [19],938 ngequiv/g
same,Drug uptake,Zone of skin [20],1743 ngequiv/g
same,Drug uptake,Rattus norvegicus [21],1877 ngequiv/g
same,Drug uptake,Pancreas [22],23.7%
same,Drug uptake,Rattus norvegicus [23],6936 ngequiv/g
same,Drug uptake,Lung [24],38.9%
same,Drug uptake,Rattus norvegicus [25],2606 ngequiv/g
same,Drug uptake,Rattus norvegicus [26],2627 ngequiv/g
same,Drug uptake,Muscle tissue,36.5%
same,t1/2,Plasma [27],21.9 h
same,Drug uptake,Pituitary gland [28],47.8%
same,Drug uptake,Rattus norvegicus [29],891 ngequiv/g
same,Drug uptake,Rattus norvegicus [30],467 ngequiv/g
same,Drug uptake,Rattus norvegicus [31],670 ngequiv/g
same,t1/2,Blood,38.6 h
same,t1/2,[32],27.1 h
same,Drug uptake,[33],100%
same,Drug uptake,Rattus norvegicus [34],2290 ngequiv/g
same,Drug uptake,Pituitary gland [35],2350 ngequiv/g
same,Drug uptake,Brain,75.6%
same,Drug uptake,Harderian gland,4132 ngequiv/g
same,Drug uptake,Spleen [36],10694 ngequiv/g
same,t1/2,[37],19.7 h
same,Drug uptake,Pancreas [38],4138 ngequiv/g
same,Drug uptake,Rattus norvegicus [39],3447 ngequiv/g
same,Drug uptake,Spleen [40],30.9%
same,Drug uptake,[41],22.6%
same,t1/2,Lung [42],20.5 h
same,Drug uptake,Thymus [43],1746 ngequiv/g
same,Drug uptake,Pituitary gland [44],8110 ngequiv/g
same,Drug uptake,Rattus norvegicus [45],8437 ngequiv/g
same,Drug uptake,Pancreas [46],12820 ngequiv/g
same,Drug uptake,Rattus norvegicus [47],537 ngequiv/g
same,Drug uptake,Plasma [48],192 ngequiv/g
same,Drug uptake,Rattus norvegicus [49],8238 ngequiv/g
